The source of these data is patent US4388235A, “Synthesis of peptides” (Armour Pharmaceutical Company, priority 1982, dated 1983).

The assay in a line: biological potency assay of the purified product (MRC units). The note with it: freeze-dried product of Example 1. The format is in vivo.

Positions of bridges follow the written chain, without caps; N, C: chain ends. Residues, ends and D or L forms follow the SMILES beside them.

Turning to `CC(C)C[C@H](NC(=O)[C@H](CCCCN)NC(=O)CNC(=O)[C@H](CC(C)C)NC(=O)[C@@H](NC(=O)[C@@H]1CSSC[C@H](N)C(=O)N[C@@H](CO)C(=O)N[C@@H](CC(N)=O)C(=O)N[C@@H](CC(C)C)C(=O)N[C@@H](CO)C(=O)N[C@@H]([C@@H](C)O)C(=O)N1)C(C)C)C(=O)N[C@@H](CO)C(=O)N[C@@H](CCC(N)=O)C(=O)N[C@@H](CCC(=O)O)C(=O)N[C@@H](Cc1c[nH]cn1)C(=O)N[C@@H](CCCCN)C(=O)N[C@@H](CC(C)C)C(=O)N[C@@H](CCC(N)=O)C(=O)N[C@H](C(=O)N[C@@H](Cc1ccc(O)cc1)C(=O)N1CCC[C@H]1C(=O)N[C@@H](CCCNC(=N)N)C(=O)N[C@H](C(=O)N[C@@H](CC(N)=O)C(=O)N[C@H](C(=O)NCC(=O)N[C@@H](CO)C(=O)NCC(=O)N[C@H](C(=O)N1CCC[C@H]1C(N)=O)[C@@H](C)O)[C@@H](C)O)[C@@H](C)O)[C@@H](C)O` [des Leu^16 -SCT, Des-Leu^16 -salmon calcitonin] (H-CSNLSTCVLGKLSQEHKLQTYPRTNTGSGTP-NH2; disulfide 1-7), the assayed potency was 580 MRC units per mg.
